According to patent US7910588B2, “5-HT7 receptor antagonists” (Eli Lilly and Company, priority 2007, dated 2011):

Experiments:
[1] = biological target: T1, 5-HT1B (Homo sapiens, UniProt P28222); test: Radioligand binding assay, 5-HT1B
T1 construct: expressed in transfected cells
Description: (§1) [^3H] […] The reactions are incubated at room temperature for 3 hr. and then counted in a Trilux Microbeta™ scintillation counter to detect receptor-bound radioligand. Binding data are analyzed by computer-assisted 4 parameter fit analysis (ID Business Solutions Ltd, Guildford, Surrey, UK). […]
(§2) Affinity for other serotonin receptor subtypes as well as for alpha 1 & 2 adrenergic receptors can readily be determined by modification of the above described radioligand receptor binding assay using membranes derived from cells stably expressing the desired receptor subtype including the 5-HT1A, 5-HT1B, and 5-HT1D subtypes, as well as the 5-HT2A, 5-HT2B, 5-HT2C, 5-HT4, 5-HT7, and 5-HT6 receptor subtypes. […]

[2] = biological target: T2, 5-HT2C (Homo sapiens, UniProt P28335); test: Radioligand binding assay, 5-HT2C
T2 construct: expressed in transfected cells
T2 sequence (P28335 33-458): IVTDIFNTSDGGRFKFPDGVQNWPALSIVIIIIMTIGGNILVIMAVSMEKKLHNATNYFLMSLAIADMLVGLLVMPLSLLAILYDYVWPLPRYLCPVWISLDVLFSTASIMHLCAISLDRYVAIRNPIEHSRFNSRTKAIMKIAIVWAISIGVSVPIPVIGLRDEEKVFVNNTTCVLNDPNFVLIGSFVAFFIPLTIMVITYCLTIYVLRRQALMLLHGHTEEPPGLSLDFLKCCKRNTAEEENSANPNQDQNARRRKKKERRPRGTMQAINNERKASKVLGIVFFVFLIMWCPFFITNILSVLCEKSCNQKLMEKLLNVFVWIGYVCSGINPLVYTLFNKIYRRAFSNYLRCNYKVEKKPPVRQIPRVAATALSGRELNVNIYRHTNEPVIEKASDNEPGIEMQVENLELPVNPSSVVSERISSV
Description: as §1, §2

[3] = tested on: dural plasma protein extravasation; test: Animal model of dural plasma protein extravasation (PPE); type: in vivo; settings: rat
Excerpt: The dural plasma protein extravasation model is an established model for migraine. The ability of a test compound to reduce extravasation of plasma proteins into the dura under assay conditions is considered indicative of the compound's ability to reduce or prevent the dural inflammation thought to be symptomatic of migraine. (see Johnson, K. W., et al., Neuroreport, 8 (1997) 2237-2240.)
To assay compounds for their ability to reduce or prevent dural plasma protein extravasation, male Harlan Sprague-Dawley rats (250-350 g) are anesthetized with sodium pentobarbital (65 mg/kg, i.p.) and placed in a stereotaxic frame (David Kopf Instruments) with the incisor bar set at −2.5 mm. Following a midline sagital scalp incision, 2 pairs of bilateral holes are drilled through the skull (3.2 mm posterially, 1.8 and 3.8 mm laterally, all coordinates referenced to bregma). […]
The amount of FITC-BSA for each sample is quantified with a fluorescence microscope (Zeiss) equipped with a grating monochromator, a spectrophotometer, and a computer driven stage. Fluorescence measurements are taken at 25 points in a 5×5 grid in 500 μm steps on each dural sample with an excitation wavelength of approximately 490 nm and emission intensity measured at approximately 535 nm. The mean and standard deviation of the 25 measurements are determined. […]

T1 sequence (P28222 whole entry, species assumed): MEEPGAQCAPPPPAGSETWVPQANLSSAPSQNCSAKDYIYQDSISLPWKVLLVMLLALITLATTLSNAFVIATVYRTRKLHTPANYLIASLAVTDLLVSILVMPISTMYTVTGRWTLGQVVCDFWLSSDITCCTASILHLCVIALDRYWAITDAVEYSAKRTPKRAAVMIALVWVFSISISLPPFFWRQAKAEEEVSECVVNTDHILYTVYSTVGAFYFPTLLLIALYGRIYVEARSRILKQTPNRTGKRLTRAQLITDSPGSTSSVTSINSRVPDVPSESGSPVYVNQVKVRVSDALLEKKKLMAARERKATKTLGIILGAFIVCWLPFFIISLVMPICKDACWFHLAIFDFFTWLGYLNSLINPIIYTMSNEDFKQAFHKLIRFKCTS

Compound: CCn1ncc(CN2CCN(c3cccnc3N3CCC(O)CC3)CC2)c1C.Cl [Example 1, 3′-[4-(1-Ethyl-5-methyl-1H-pyrazol-4-ylmethyl)-piperazin-1-yl]-3,4,5,6-tetrahydro-2H-[1,2]bipyridinyl-4-ol hydrochloride]
- Ki [1]: > 3.58 µM
- Ki [2]: > 8.36 µM
- ratio of extravasation in the dura, stimulated side over unstimulated side ([3]; at 0.1 mg/Kg, saline control approximately 2.0, full prevention approximately 1.0): about 1.15
- ID100 ([3]; electrical stimulation of trigeminal ganglion, route not stated for the result): 0.1 mg/kg
